Values quoted from earlier work as cited in US20120095034A1, “PIPERIDINE DERIVATIVES USEFUL AS OREXIN RECEPTOR ANTAGONISTS” (priority 2007, published 2012).
No end group written: not given here.

System: rats
Settings: central administration at the onset of the normal sleep period, rat

orexin-A: ligand for the orexin-1 receptor; an agonist of the orexin receptors (QPLPDCCRQKTCSCRLYELLHGAGNHAAGILTL; ends and bridges not checked; cysteine pairing not given here; UniProt O43612 34-66, looked up)
arousal: dose-related increase in arousal
